From patent publication US6214537A, “Synthetic peptides and mixtures thereof for detecting HIV antibodies” (Biochem Immunosystems, Inc., priority 1988, dated 2001)
Positions of bridges follow the written chain, without caps; N, C: chain ends. Residues, ends and D or L forms follow the SMILES beside them.

Assays:
HIV-1 antibodies [1] = experiment: ELISA plates coated with cyclic 87c versus linear 87 or polymers of 87: sensitivity and background; format: binding, human
[2] = tested on: antibodies specific to HIV-1; experiment: ELISA serum titers, plates coated with cyclic 87c versus linear 87; format: binding, human
Source text: (§1) Even though results presented in TABLE 5 clearly show the superiority of cyclic peptides over their linear counterpart in detecting HIV-1-antibodies, that increased sensitivity could have been underestimated because of probable cyclization and polymerization of the linear peptide after solubilization in a carbonate buffer (pH 9.6). That experiment was repeated with the linear 87 and cyclic 87c peptides dissolved in a carbonate buffer (pH 9.6) as before and also in 10% acetic acid (pH 2.7). […] It is believed that cydization and polymerization also occured in the wells of the microtiter plates although the exact proportion of cyclic peptide bound to the plates versus linear has not been as yet determined.
(§2) Plates used in this experiment were coated with solutions of peptides at 10 μg/ml. (Experimental results of TABLE 5 were obtained with plates coated with peptides at 0,5 μg/ml). Four different HIV-1 positive serum samples were serially diluted and their titers determined. The titer was defined as the serum dilution giving an absorbancy reading of 1:0 in the conditions of the ELISA procedure already described.
The ratios of sensitivities measured with the cyclic peptide over the linear 87 peptide vary between 1:3 and 2:2 with an average of 1:8. These ratios are even larger, varying from 3:0 to 4:5, when the sensitivity of the ELISA test using the cyclic 87c peptide is compared using conditions (acidic pH) where the linear 87 peptide remains linear and is not allowed to cyclize or polymerize.

HIV-1-antibodies = experiment: ELISA, cyclic versus non-cyclic peptides, sera at various dilutions; format: binding, human
Procedure: TABLE 5 is provided to illustrate the sensitivity of cyclic versus noncyclic peptides in the ELISA test by comparing the results of some sera at various dilutions.
as §2
(§3) Each well of the microtiter plate is saturated with 100 μl of a solution containing a peptide or mixture of peptides (5 μg/ml) and left overnight. The wells are emptied and washed twice with a washing buffer (Tris, 0.043M; NaCl, 0.5M;thimerosal, 0.01% w/v; Tween 20, 0.05% v/v; pH 7.4). The wells are then saturated with 0.35 ml of washing buffer for 1 hr. at 37° C. and washed once with the same buffer. Serum samples to be analyzed are diluted with specimen buffer (washing buffer plus casein, 0.05% w/v). The wells are rinsed with washing buffer prior to the addition of the diluted serum sample (0.1 ml). These are left to incubate for 1 hr. at room temperature. The wells are then emptied, washed twice rapidly and then once for two minutes with washing buffer. […] The wells are then emptied and washed twice rapidly with washing buffer and then five times in which the buffer was in contact with the well 2 minutes per washing.
(§4) The substrate solution (3,3', 5,5'-tetramethylbenzidine, 8 mg per ml of DMSO) is diluted with 100 volumes 0.1M citrate-acetate buffer, pH 5.6 containing 0.1% v/v of 30% H2 O2 and added to each well (0.1 ml per well). After 10 minutes the contents of each well is treated with 0.1 ml 2N H2 SO4 and the optical density read at 450 nm. All determinations are done in duplicate.

[3] = State of peptide in coating solution (HPLC, Ellman's test); format: physicochemical; conditions: for state of peptide in solution (HPLC, Ellman's test): 10% acetic acid (pH 2.7)
Source text: as §1

HIV-1 antibodies [4] = experiment: ELISA, single peptides identifying HIV-1 positive sera; format: binding, human; conditions: ELISA, single peptide
Procedure: According to this test a peptide or a peptide mixture of the present invention is adsorbed onto the wells of a microtiter plate. The wells are then treated with sera to be tested. After washing, anti-human IgG labeled with peroxidase is added to the wells. The determination of the peroxidase is performed with a corresponding substrate, e.g. with o-phenylene diamine. Also in this procedure the peroxidase can be exchanged by another label, e.g. by a radioactive or fluorescence label.
as §3, §4

[5] = coating buffer 10% Acetic Acid (pH 2.7), serum M-5, coated at 10 μg/ml
[6] = coating buffer 10% Acetic Acid (pH 2.7), serum M-7, coated at 10 μg/ml
[7] = coating buffer 10% Acetic Acid (pH 2.7), serum M-8, coated at 10 μg/ml
[8] = coating buffer 10% Acetic Acid (pH 2.7), serum M-16, coated at 10 μg/ml
[9] = coating buffer Carbonate Bicarbonate 0.1M (pH 9.6), serum M-5, coated at 10 μg/ml
[10] = coating buffer Carbonate Bicarbonate 0.1M (pH 9.6), serum M-7, coated at 10 μg/ml
[11] = coating buffer Carbonate Bicarbonate 0.1M (pH 9.6), serum M-8, coated at 10 μg/ml
[12] = coating buffer Carbonate Bicarbonate 0.1M (pH 9.6), serum M-16, coated at 10 μg/ml

Molecule: CC[C@H](C)[C@H](NC(=O)CNC(=O)[C@H](CC(C)C)NC(=O)[C@H](CC(C)C)NC(=O)[C@H](CCC(N)=O)NC(=O)[C@H](CCC(N)=O)NC(=O)[C@H](CC(=O)O)NC(=O)[C@H](CCCCN)NC(=O)[C@H](CC(C)C)NC(=O)[C@H](Cc1ccc(O)cc1)NC(=O)[C@H](CCCNC(=N)N)NC(=O)[C@H](CCC(=O)O)NC(=O)[C@@H](NC(=O)[C@H](C)NC(=O)[C@H](CC(C)C)NC(=O)[C@@H](NC(=O)[C@@H](N)CCCNC(=N)N)[C@@H](C)CC)C(C)C)C(=O)N[C@@H](Cc1c[nH]c2ccccc12)C(=O)NCC(=O)N[C@H]1CSSC[C@@H](C(=O)N[C@H](C(=O)N[C@H](C(=O)N[C@@H](C)C(=O)N[C@H](C(=O)N2CCC[C@H]2C(=O)N[C@@H](Cc2c[nH]c3ccccc23)C(=O)N[C@@H](CC(N)=O)C(=O)N[C@@H](C)C(=O)N[C@@H](CO)C(=O)O)C(C)C)[C@@H](C)O)[C@@H](C)O)NC(=O)[C@H]([C@@H](C)CC)NC(=O)[C@H](CC(C)C)NC(=O)[C@H](CCCCN)NC(=O)CNC(=O)[C@H](CO)NC1=O [Peptide 87c] (H-RILAVERYLKDQQLLGIWGCSGKLICTTAVPWNAS-OH; disulfide 20-26)
- sensitivity in detecting HIV-1 antibodies compared with plates coated with pool of fractions containing only polymers of peptide 87 (HIV-1 antibodies [1]): superiority
- titer ratio A/B (87c cyclic / 87 linear) ([2]; 10% Acetic Acid (pH 2.7), serum M-5): 3.0
- titer ratio A/B (87c cyclic / 87 linear) ([2]; 10% Acetic Acid (pH 2.7), serum M-7): 3.9
- titer ratio A/B (87c cyclic / 87 linear) ([2]; 10% Acetic Acid (pH 2.7), serum M-8): 4.5
- titer ratio A/B (87c cyclic / 87 linear) ([2]; 10% Acetic Acid (pH 2.7), serum M-16): 3.7
- titer ratio A/B (87c cyclic / 87 linear) ([2]; Carbonate Bicarbonate 0.1M (pH 9.6), serum M-5): 1.3
- titer ratio A/B (87c cyclic / 87 linear) ([2]; Carbonate Bicarbonate 0.1M (pH 9.6), serum M-7): 1.8
- titer ratio A/B (87c cyclic / 87 linear) ([2]; Carbonate Bicarbonate 0.1M (pH 9.6), serum M-8): 2.2
- titer ratio A/B (87c cyclic / 87 linear) ([2]; Carbonate Bicarbonate 0.1M (pH 9.6), serum M-16): 1.7
- serum titer [2, 5]: 13500
- serum titer [2, 6]: 9000
- serum titer [2, 7]: 6300
- serum titer [2, 8]: 56000
- serum titer [2, 9]: 13500
- serum titer [2, 10]: 11000
- serum titer [2, 11]: 6500
- serum titer [2, 12]: 56000
- ELISA optical density (HIV-1-antibodies; serum 87V103, dilution 1/50): 0.011 optical density units
- ELISA optical density (HIV-1-antibodies; serum 1428, dilution 1/50): > 2.0 optical density units
- ELISA optical density (HIV-1-antibodies; serum M-5, dilution 1/50): > 2.0 optical density units
- ELISA optical density (HIV-1-antibodies; serum M-5, dilution 1/100): > 2.0 optical density units
- ELISA optical density (HIV-1-antibodies; serum M-5, dilution 1/200): > 2.0 optical density units
- ELISA optical density (HIV-1-antibodies; serum M-5, dilution 1/400): > 2.0 optical density units
- ELISA optical density (HIV-1-antibodies; serum M-5, dilution 1/800): 1.854 optical density units
- ELISA optical density (HIV-1-antibodies; serum M-7, dilution 1/50): > 2.0 optical density units
- ELISA optical density (HIV-1-antibodies; serum M-7, dilution 1/100): > 2.0 optical density units
- ELISA optical density (HIV-1-antibodies; serum M-7, dilution 1/200): 1.729 optical density units
- ELISA optical density (HIV-1-antibodies; serum M-7, dilution 1/400): 1.348 optical density units
- ELISA optical density (HIV-1-antibodies; serum M-7, dilution 1/800): 0.611 optical density units
- ELISA optical density (HIV-1-antibodies; serum M-8, dilution 1/50): > 2.0 optical density units
- ELISA optical density (HIV-1-antibodies; serum M-8, dilution 1/100): > 2.0 optical density units
- ELISA optical density (HIV-1-antibodies; serum M-8, dilution 1/200): 1.655 optical density units
- ELISA optical density (HIV-1-antibodies; serum M-8, dilution 1/400): 1.064 optical density units
- ELISA optical density (HIV-1-antibodies; serum M-8, dilution 1/800): 0.384 optical density units
- ELISA optical density (HIV-1-antibodies; serum M-16, dilution 1/50): > 2.0 optical density units
- ELISA optical density (HIV-1-antibodies; serum M-16, dilution 1/100): > 2.0 optical density units
- ELISA optical density (HIV-1-antibodies; serum M-16, dilution 1/200): > 2.0 optical density units
- ELISA optical density (HIV-1-antibodies; serum M-16, dilution 1/400): > 2.0 optical density units
- ELISA optical density (HIV-1-antibodies; serum M-16, dilution 1/800): 1.962 optical density units
- state of peptide in solution (HPLC, Ellman's test) [3]: remained cyclic
- % Positive Sera correctly Identified (HIV-1 antibodies [4]): 99%

Molecule: NH2 -RILAVERYLKDQQLLGIWGCSGKLICTTAVPWNAS-COOH [Peptide 87]
- serum titer [2, 5]: 4500
- serum titer [2, 6]: 2300
- serum titer [2, 7]: 1400
- serum titer [2, 8]: 15000
- serum titer [2, 9]: 10500
- serum titer [2, 10]: 6000
- serum titer [2, 11]: 2900
- serum titer [2, 12]: 33000
- ELISA optical density (HIV-1-antibodies; serum 87V103, dilution 1/50): 0.005 optical density units
- ELISA optical density (HIV-1-antibodies; serum 1428, dilution 1/50): 1.463 optical density units
- ELISA optical density (HIV-1-antibodies; serum M-5, dilution 1/50): 1.809 optical density units
- ELISA optical density (HIV-1-antibodies; serum M-5, dilution 1/100): 1.685 optical density units
- ELISA optical density (HIV-1-antibodies; serum M-5, dilution 1/200): 1.513 optical density units
- ELISA optical density (HIV-1-antibodies; serum M-5, dilution 1/400): 1.418 optical density units
- ELISA optical density (HIV-1-antibodies; serum M-5, dilution 1/800): 1.012 optical density units
- ELISA optical density (HIV-1-antibodies; serum M-7, dilution 1/50): 1.504 optical density units
- ELISA optical density (HIV-1-antibodies; serum M-7, dilution 1/100): 1.329 optical density units
- ELISA optical density (HIV-1-antibodies; serum M-7, dilution 1/200): 1.184 optical density units
- ELISA optical density (HIV-1-antibodies; serum M-7, dilution 1/400): 0.923 optical density units
- ELISA optical density (HIV-1-antibodies; serum M-7, dilution 1/800): 0.571 optical density units
- ELISA optical density (HIV-1-antibodies; serum M-8, dilution 1/50): 1.390 optical density units
- ELISA optical density (HIV-1-antibodies; serum M-8, dilution 1/100): 1.087 optical density units
- ELISA optical density (HIV-1-antibodies; serum M-8, dilution 1/200): 0.883 optical density units
- ELISA optical density (HIV-1-antibodies; serum M-8, dilution 1/400): 0.593 optical density units
- ELISA optical density (HIV-1-antibodies; serum M-8, dilution 1/800): 0.240 optical density units
- ELISA optical density (HIV-1-antibodies; serum M-16, dilution 1/50): 1.846 optical density units
- ELISA optical density (HIV-1-antibodies; serum M-16, dilution 1/100): 1.784 optical density units
- ELISA optical density (HIV-1-antibodies; serum M-16, dilution 1/200): 1.740 optical density units
- ELISA optical density (HIV-1-antibodies; serum M-16, dilution 1/400): 1.634 optical density units
- ELISA optical density (HIV-1-antibodies; serum M-16, dilution 1/800): 1.537 optical density units
- state of peptide in solution (HPLC, Ellman's test) [3]: remained linear
- state of peptide in solution (HPLC) ([3]; carbonate buffer (pH 9.6), room temperature): underwent cyclization and polymerization
- % Positive Sera correctly Identified (HIV-1 antibodies [4]): 99%
